# Measured values reported in US12662714B2, “Method for separation of adjacent lanthanide elements” (UT-Battelle, LLC, priority 2022, dated 2026).
# Key:
# [1] = Solvent extraction of Lns, distribution ratio of Sm; details: 13 mM Ligand 2 used instead of ligand 1; 0.1 M DGA; 1 M HNO3; 1 h
# [2] = Solvent extraction of Lns, separation factor Dy/Nd; details: 13 mM Ligand 2 used instead of ligand 1; 0.1 M DGA; 1 M HNO3; 1 h
# [3] = Solvent extraction of Lns, separation factor Gd/La; details: 13 mM Ligand 2 used instead of ligand 1; 0.1 M DGA; 1 M HNO3; 1 h
# [4] = Solvent extraction of Lns, distribution ratio of La; details: 13 mM Ligand 2 used instead of ligand 1; 0.1 M DGA; 1 M HNO3; 1 h
# [5] = Solvent extraction of Lns, separation factor Tb/Gd; details: 0.1 M DGA, 1 M HNO3, 1 h
# Method: (§1) General procedure: a 500 microliter (μL) aqueous phase consisting of 7 mM Ln(III) (0.5 mM of each Ln(III)) in 1 M HNO3 without or with aqBLPhen 1 (3, 13, or 25 mM) was contacted with an equal volume of organic phase containing 0.1 M DGA (3, 4, or 5). The two phases were contacted in a 1:1 ratio of organic/aqueous by end-over-end rotation in individual 1.8 mL capacity snap-top Eppendorf tubes using a rotating wheel in an airbox set at 25.5±0.5° C. Contacts were performed in triplicate with a contact time of 1 hour. The samples were centrifuged at 1811 g for 2 min at room temperature to separate the phases. Each triplicate was then sub-sampled, using a 300 μL aliquot of the aqueous phase transferred to individual polypropylene tubes and diluted with 2% HNO3 for analysis using ICP-MS or ICP-OES. Two samples of the initial lanthanide solution were similarly prepared.
# (§2) The ability of 1 and DGA to separate Lns was evaluated using a two-component, immiscible solvent system: nitric acid (aqueous phase containing 1) and n-dodecane with 10 vol % 1-octanol (oil phase containing DGA). The amount of Ln partitioned from the aqueous phase into the oil phase was measured using inductively coupled plasma optical emission spectroscopy or mass spectrometry. The Ln concentration in each phase was then used to calculate the separation efficiency.
# (§3) The percentage of Lns in the aqueous and the oil phases is presented in FIGS. 1a-1i. for each DGA in the absence and presence of the aqueous complexant 1 (E=([Ln1]/[Ln1]0)×100%). The distribution ratios (i.e., D=[Ln1]org/[Ln1]aq) for select Lns are listed in Table 1, which also include selectivities (i.e., SFLn1/Ln2=DLn1/DLn2), for several Ln pairs. An efficient separation of Lns was achieved when DLn1>1 and DLn2<1 or ELn1>50% and ELn2<50%. […] Neither of the three DGAs can separate Lns in a single extraction stage.
# [6] = Solvent extraction of Lns, separation factor Sm/Nd; details: 13 mM Ligand 2 used instead of ligand 1; 0.1 M DGA; 1 M HNO3; 1 h
# [7] = Solvent extraction of Lns, separation factor Dy/Nd; details: 0.1 M DGA, 1 M HNO3, 1 h
# Method: as §1, §2, §3
# [8] = Solvent extraction of Lns, distribution ratio of La; details: 1 M HNO3, 1 h
# Method: as §1, §2, §3
# [9] = Solvent extraction of Lns, separation factor Gd/La; details: for SFGd/La separation factor: 0.1 M DGA, 1 M HNO3, 1 h
# Method: as §1, §2, §3
# [10] = Solvent extraction of Lns, separation factor Nd/Pr; details: 0.1 M DGA, 1 M HNO3, 1 h
# Method: as §1, §2, §3
# [11] = Solvent extraction of Lns, distribution ratio of Sm; details: 0.1 M DGA, 1 M HNO3, 1 h
# Method: as §1, §2, §3
# [12] = Solvent extraction of Lns, distribution ratio of Gd; details: 13 mM Ligand 2 used instead of ligand 1; 0.1 M DGA; 1 M HNO3; 1 h
# [13] = Extraction of 14 Lns from aqueous phase into oil phase; details: 0.1 M DGA alone; 14 Lns 0.5 mM each; 1 M HNO3
# Method: as §1, §2, §3
# [14] = Solvent extraction of Lns, separation factor Sm/Nd; details: 0.1 M DGA, 1 M HNO3, 1 h
# Method: as §1, §2, §3
# [15] = Solvent extraction of Lns, separation factor Nd/Pr; details: 13 mM Ligand 2 used instead of ligand 1; 0.1 M DGA; 1 M HNO3; 1 h
# [16] = Solvent extraction of Lns, distribution ratio of Gd; details: 0.1 M DGA, 1 M HNO3, 1 h
# Method: as §1, §2, §3
# [17] = Solvent extraction of Lns, distribution ratio of Nd; details: 13 mM Ligand 2 used instead of ligand 1; 0.1 M DGA; 1 M HNO3; 1 h
# [18] = Optimized separation of adjacent Ln pair Nd-Pr with 1 and Ligand 3
# Method: The synergistic use of 1 and Ligand 3 was further optimized to maximize the separation of one adjacent Ln pair Nd—Pr using the percentage of Ln extracted as a guide. The separation of Nd and Pr reached equilibrium in less than 1 hour, and the D values for both increased at higher HNO3 and Ligand 3 concentrations (FIGS. 3b and 3c). Ligand 3, being a neutral ligand, requires co-extraction of counterions (i.e., three NO3^−) with Ln; thus, the extraction of Lns with DGA is favored at high nitrate concentration, and the process is reversed at low anion concentration.
# The highest selectivity of 4.9±0.2 for Nd—Pr pair was obtained when separating 2.5 mM Nd and Pr, each using 13 mM of 1 in 1 M HNO3 with 0.1 M of Ligand 3 in the oil phase and equilibrating for 30 min at 25.5° C. Next, the recovery of Nd and Pr from each phase after extraction using the 1-Ligand 3-HNO3 system was investigated. […] The charged ligand (CO3^2−) outcompetes neutral ligand 1 in complexing with Ln ions; furthermore, the thermodynamics of the Ln2(CO3)3 formation is highly favorable due to high crystal lattice energy of the salt. The identity of the precipitate was confirmed using Fourier-transform infrared spectroscopy (FTIR), and the results are in good agreement with commercially available Pr and Nd carbonate salts. Ligand 1 remains in the aqueous solution that can be further recycled in the lanthanide separation process.
# [19] = Solvent extraction of Lns, distribution ratio of Nd; details: 0.1 M DGA, 1 M HNO3, 1 h
# Method: as §1, §2, §3
smiles,measurement,setting,value
"CCCCCCCCN(C)C(=O)COCC(=O)N(C)CCCCCCCC [Ligand 3, N,N′-dimethyl-N,N′-di(n-octyl)diglycolamide]",DSm distribution ratio,[1],163
same,SFDy/Nd separation factor,[2],60
same,SFGd/La separation factor,[3],136
same,DLa distribution ratio,[4],2.65
same,SFTb/Gd separation factor,[5]; 13 mM Ligand 2 used instead of ligand 1,1.6
same,SFTb/Gd separation factor,[5]; [1] 0 mM,1.1
same,SFTb/Gd separation factor,[5]; [1] 3 mM,2.0
same,SFTb/Gd separation factor,[5]; [1] 13 mM,3.0
same,SFTb/Gd separation factor,[5]; [1] 25 mM,3.0
same,SFSm/Nd separation factor,[6],7.6
same,SFDy/Nd separation factor,[7]; [1] 0 mM,4.7
same,SFDy/Nd separation factor,[7]; [1] 3 mM,352
same,SFDy/Nd separation factor,[7]; [1] 13 mM,451
same,SFDy/Nd separation factor,[7]; [1] 25 mM,1313
same,DLa distribution ratio,"[8]; [1] 0 mM, 0.1 M DGA in n-dodecane with 10 vol % 1-octanol, 0.5 mM each Ln",71
same,DLa distribution ratio,"[8]; [1] 3 mM, 0.1 M DGA",0.59
same,DLa distribution ratio,"[8]; [1] 13 mM, 0.1 M DGA",0.28
same,DLa distribution ratio,"[8]; [1] 25 mM, 0.1 M DGA",0.23
same,SFGd/La separation factor,[9]; [1] 0 mM,36
same,SFGd/La separation factor,[9]; [1] 3 mM,2010
same,SFGd/La separation factor,[9]; [1] 13 mM,1992
same,SFGd/La separation factor,[9]; [1] 25 mM,1512
same,times higher selectivity for Gd over La than the TDdDGA-DOODA(C2) system,[9]; combination of 1 and Ligand 3,~2 times
same,times higher selectivity for Gd over La than the TODGA-DOODA(C2) system,[9]; combination of 1 and Ligand 3,20 times
same,SFNd/Pr separation factor,[10]; [1] 0 mM,2.1
same,SFNd/Pr separation factor,[10]; [1] 3 mM,4.0
same,SFNd/Pr separation factor,[10]; [1] 13 mM,4.2
same,SFNd/Pr separation factor,[10]; [1] 25 mM,3.2
same,DSm distribution ratio,[11]; [1] 0 mM,1795
same,DSm distribution ratio,[11]; [1] 3 mM,222
same,DSm distribution ratio,[11]; [1] 13 mM,68.1
same,DSm distribution ratio,[11]; [1] 25 mM,42.2
same,DGd distribution ratio,[12],360
same,extraction of Lns from the aqueous phase into the oil phase,[13],nearly quantitatively extracted all Lns
same,SFSm/Nd separation factor,[14]; [1] 0 mM,3.2
same,SFSm/Nd separation factor,[14]; [1] 3 mM,20
same,SFSm/Nd separation factor,[14]; [1] 13 mM,6.4
same,SFSm/Nd separation factor,[14]; [1] 25 mM,18
same,SFNd/Pr separation factor,[15],2.3
same,DGd distribution ratio,[16]; [1] 0 mM,2531
same,DGd distribution ratio,[16]; [1] 3 mM,1192
same,DGd distribution ratio,[16]; [1] 13 mM,552
same,DGd distribution ratio,[16]; [1] 25 mM,346
same,DNd distribution ratio,[17],21.4
same,highest selectivity for Nd-Pr pair,"[18]; 2.5 mM Nd and Pr each, 13 mM of 1 in 1 M HNO3, 0.1 M Ligand 3 in oil phase, 30 min, 25.5° C.",4.9±0.2
same,time for the separation of Nd and Pr to reach equilibrium,[18]; 1 and Ligand 3,less than 1 hour
same,recovery of Nd and Pr from the spent oil phase,[18]; three consecutive contacts with an equal volume of deionized water,Near-quantitative recovery
same,DNd distribution ratio,[19]; [1] 0 mM,558
same,DNd distribution ratio,[19]; [1] 3 mM,11.0
same,DNd distribution ratio,[19]; [1] 13 mM,10.7
same,DNd distribution ratio,[19]; [1] 25 mM,2.34
